The values that follow come from patent publication US7598397B2, “Sulfonamide peri-substituted bicyclics for occlusive artery disease” (deCODE genetics ehf, priority 2004, dated 2009).

The target in this test is T1, prostanoid EP3 receptors (Homo sapiens, UniProt P43115).
T1 sequence (P43115 1-390): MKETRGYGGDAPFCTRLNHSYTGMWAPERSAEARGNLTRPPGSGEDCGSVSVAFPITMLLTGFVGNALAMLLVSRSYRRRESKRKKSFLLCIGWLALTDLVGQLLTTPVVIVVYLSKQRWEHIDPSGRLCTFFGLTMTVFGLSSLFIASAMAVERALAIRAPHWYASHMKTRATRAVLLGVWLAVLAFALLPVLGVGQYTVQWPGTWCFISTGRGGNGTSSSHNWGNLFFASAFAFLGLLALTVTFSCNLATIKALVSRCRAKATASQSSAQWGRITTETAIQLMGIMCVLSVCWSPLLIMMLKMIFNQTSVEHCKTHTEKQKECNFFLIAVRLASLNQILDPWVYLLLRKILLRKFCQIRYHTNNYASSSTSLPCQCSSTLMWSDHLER
The test can be described thus: binding on prostanoid EP3 receptors (method of Abramovitz et al.). The following applies: read-out: Activity (EP3 receptor binding, IC50 class). On the procedure:
The compounds of the invention were assayed for their binding on prostanoid EP3 receptors according to the method of Abramovitz et al. [Bioch. Biophys.
Consider `CC12CCCC(CCC(=O)NS(=O)(=O)c3cc(Cl)c(Cl)s3)C1N(Cc1ccc(F)c(F)c1)C(=O)C2` (stereo not drawn) [Compound P415], for which the IC50 is less than 1 µM.

On to `Cc1cn(Cc2cn3ccccc3n2)c2c(C=CC(=O)NS(=O)(=O)c3cc(F)ccc3F)cc(F)cc12` [Compound P407], for which the IC50 is less than 1 µM.

For `Cc1ccc(C)c(CN2C(=O)COc3cccc(OCC(=O)NS(=O)(=O)c4cccs4)c32)c1` [Compound P021], the IC50 lay in the range of 1 to 10 µM.

For the compound `COc1cccc(CN2C(=O)CC3(C)CCCC(C=CC(=O)NS(=O)(=O)c4cc(F)cc(F)c4)=C23)c1` (stereo not drawn) [Compound P307], the IC50 was less than 1 µM.

For `COc1cccc(Cn2cc(C)c3cccc(/C=C/C(=O)NS(=O)(=O)c4cc(Cl)c(Cl)s4)c32)c1` [Compound P142], the IC50 is less than 1 µM.

In the case of `O=C(C=Cc1cccc2c1N(Cc1ccc(Cl)cc1Cl)C(=O)C2(F)F)NS(=O)(=O)c1cccs1` [Compound P216], the IC50 was less than 1 µM.

`Cc1cn(Cc2ccc(Cl)cc2Cl)c2c(C=CC(=O)NS(=O)(=O)c3ccccc3)cccc12` [Compound P090]: the IC50 is less than 1 µM.

On to `Cn1cc(C=CC(=O)NS(=O)(=O)c2ccc(F)c(F)c2)c2c(Oc3ccc(F)cc3Cl)cccc21` [Compound P341], for which the IC50 is less than 1 µM.

Take `Cc1cn(Cc2ccc3c(c2)OCO3)c2c(/C=C/C(=O)NS(=O)(=O)c3cccs3)cccc12` [Compound P101]: the IC50 is less than 1 µM.

Turning to `Cc1cn(Cc2cn3ccccc3n2)c2c(/C=C/C(=O)NS(=O)(=O)c3cccc(Cl)c3)cc(F)cc12` [Compound P400], the IC50 is less than 1 µM.

For `O=C(COc1cccc2[nH]cc(S(=O)(=O)c3ccc4ccccc4c3)c12)NS(=O)(=O)c1cccc(Cl)c1` [Compound P192], the IC50 is less than 1 µM.

For the compound `Cc1cn(Cc2ccc(F)cc2)c2c(C=CC(=O)NS(=O)(=O)c3cc(F)c(F)cc3F)cc(F)cc12` [Compound P312], the half-maximal inhibitory concentration (IC50) is less than 1 µM.

On to `CC1(O)C(=O)N(Cc2ccc(Cl)cc2Cl)c2c(C=CC(=O)NS(=O)(=O)c3cc(Cl)c(Cl)s3)cccc21` (stereo not drawn) [Compound P133], for which the IC50 was less than 1 µM.

On to `Cn1cc(C=CC(=O)NS(=O)(=O)c2ccc(F)cc2)c2c(Oc3ccc4ccccc4c3)cccc21` [Compound P351], for which the IC50 is less than 1 µM.

With `COc1cccc(CN2C(=O)CC3(C)CCCC(C=CC(=O)NS(=O)(=O)c4cc(Cl)c(Cl)s4)=C23)c1` (stereo not drawn) [Compound P260], the IC50 is less than 1 µM.

On to `Cn1cc(C=CC(=O)NS(=O)(=O)c2cc(Cl)c(Cl)s2)c2c(Oc3ccc(Cl)cc3Cl)cccc21` [Compound P303], for which the concentration for half-maximal inhibition (IC50) is less than 1 µM.

Take `Cc1cn(Cc2ccc(Cl)cc2Cl)c2c(C=CC(=O)NS(=O)(=O)c3ccc(F)c(F)c3)cc(F)cc12` [Compound P335]: the IC50 was less than 1 µM.

In the case of `Cn1cc(C=CC(=O)NS(=O)(=O)c2cc(F)c(F)cc2F)c2c(Oc3cnc4ccccc4n3)cccc21` [Compound P394], the IC50 is less than 1 µM.

As for `Cc1cn(Cc2cccc(C(F)(F)F)c2)c2c(/C=C/C(=O)NS(=O)(=O)c3cc(Cl)c(Cl)s3)cccc12` [Compound P119], the IC50 was less than 1 µM.

As for `Cn1cc(C=CC(=O)NS(=O)(=O)c2cc(F)c(F)cc2F)c2c(Oc3ccc(F)c(Cl)c3)cccc21` [Compound P328], the IC50 is less than 1 µM.

For the compound `CC12CCCC(C=CC(=O)NS(=O)(=O)c3cc(F)cc(F)c3)=C1N(Cc1ccc(Cl)cc1Cl)C(=O)C2` (stereo not drawn) [Compound P282], the IC50 was less than 1 µM.

In the case of `Cc1cn(CC2CCOCC2)c2c(/C=C/C(=O)NS(=O)(=O)c3cc(Cl)c(Cl)s3)cccc12` [Compound P144], the IC50 is less than 1 µM.

With `COc1cccc(CN2C(=O)CC3(C)CCCC(C=CC(=O)NS(=O)(=O)c4cc(F)c(F)cc4F)=C23)c1` (stereo not drawn) [Compound P306], the IC50 was less than 1 µM.

Turning to `Cc1cn(CCC(=O)NS(=O)(=O)c2cc(Cl)c(Cl)s2)c2c(Oc3ccc(Cl)c(Cl)c3)cc(F)cc12` [Compound P388], the half-maximal inhibitory concentration (IC50) was less than 1 µM.

`Cc1cn(Cc2ccc(Cl)cc2Cl)c2c(C=CC(=O)NS(=O)(=O)c3cc(Cl)c(Cl)s3)cccc12` [Compound P079]: the IC50 is less than 1 µM.

Turning to `Cc1ccc(CN2C(=O)COc3cccc(OCC(=O)NS(=O)(=O)c4cccs4)c32)cc1` [Compound P023], the IC50 is 1 to 10 µM.

On to `Cn1cc(C=CC(=O)NS(=O)(=O)c2ccc(F)c(F)c2)c2c(Oc3cnc4ccccc4n3)cccc21` [Compound P393], for which the IC50 is less than 1 µM.

Consider `CC12CCCC(C=CC(=O)NS(=O)(=O)c3cc(F)c(F)cc3F)=C1N(Cc1ccc(Cl)cc1Cl)C(=O)C2` (stereo not drawn) [Compound P275], for which the IC50 was less than 1 µM.

As to `Cc1cn(Cc2ccc(Cl)cc2Cl)c2c(CCC(=O)NS(=O)(=O)c3cc(Cl)c(Cl)s3)cccc12` [Compound P072], the IC50 is less than 1 µM.

Regarding `O=C(COc1cccc2[nH]cc(S(=O)(=O)c3ccc(Cl)c(Cl)c3)c12)NS(=O)(=O)c1cc(Cl)c(Cl)s1` [Compound P204], the half-inhibitory concentration (IC50) was less than 1 µM.

In the case of `CCOC(=O)C12CCCC(C=CC(=O)NS(=O)(=O)c3cc(F)c(F)cc3F)=C1N(Cc1ccc(Cl)cc1Cl)C(=O)C2` (stereo not drawn) [Compound P344], the IC50 is less than 1 µM.

`Cn1c(Sc2c[nH]c3cccc(OCC(=O)NS(=O)(=O)c4cc(Cl)c(Cl)s4)c23)nc2ccccc21` [Compound P195]: the IC50 is less than 1 µM.

With `Cn1nnnc1S(=O)(=O)c1c[nH]c2cccc(OCC(=O)NS(=O)(=O)c3cc(Cl)c(Cl)s3)c12` [Compound P239], the half-maximal inhibitory concentration (IC50) was less than 1 µM.

Regarding `CC1(F)C(=O)N(Cc2ccc3ccccc3c2)c2c(C=CC(=O)NS(=O)(=O)c3cc(Cl)c(Cl)s3)cccc21` (stereo not drawn) [Compound P161], the IC50 was less than 1 µM.

On to `O=C(C=Cc1cccc2c1C(Nc1ccc3ccccc3c1)C(=O)N2)NS(=O)(=O)c1cc(Cl)c(Cl)s1` (stereo not drawn) [Compound P241], for which the IC50 was less than 1 µM.

Take `COc1ccccc1Sc1c[nH]c2cccc(OCC(=O)NS(=O)(=O)c3cc(Cl)c(Cl)s3)c12` [Compound P212]: the IC50 is less than 1 µM.

In the case of `Cn1cc(/C=C/C(=O)NS(=O)(=O)c2cc(Cl)c(Cl)s2)c2c(Oc3ccc(F)cc3F)cccc21` [Compound P326], the IC50 was less than 1 µM.

Consider `Cc1cn(Cc2cccc(OC(F)(F)F)c2)c2c(/C=C/C(=O)NS(=O)(=O)c3cc(Cl)c(Cl)s3)cccc12` [Compound P140], for which the IC50 is less than 1 µM.

Consider `O=C(Nc1cccc2c1N(Cc1ccc3ccccc3c1)C(=O)CO2)C(=O)NS(=O)(=O)c1cccs1` [Compound P019, N-(4-Naphthalen-2-ylmethyl-3-oxo-3,4-dihydro-2H-benzo[1,4]oxazin-5-yl)-2-oxo-2-(thiophen-2-sulfonylamino)-acetamide], for which the IC50 was in the range of 1 to 10 µM.

Turning to `Cc1ccc(C)c(Cn2ccc3cccc(C=CC(=O)NS(=O)(=O)c4cccs4)c32)c1` [Compound P008], the IC50 is less than 1 µM.

`COc1cccc(CN2C(=O)COc3cccc(OCC(=O)NS(=O)(=O)c4cccs4)c32)c1` [Compound P030]: the IC50 was 1 to 10 µM.

On to `O=C(COc1cccc2[nH]cc(Sc3ccc4ccccc4c3)c12)NS(=O)(=O)c1cc(F)c(F)cc1F` [Compound P226], for which the IC50 was less than 1 µM.

Turning to `CN1C(=O)C(Oc2ccc3ccccc3c2)c2c(/C=C/C(=O)NS(=O)(=O)c3cc(Cl)c(Cl)s3)cccc21` (stereo not drawn) [Compound P265, 4,5-dichloro-thiophene-2-sulfonic acid {(E)-3-[1-methyl-3-(naphthalen-2-yloxy)-2-oxo-2,3-dihydro-1H-indol-4-yl]-acryloyl}-amide], the IC50 was less than 1 µM.

In the case of `Cn1cc(C=CC(=O)NS(=O)(=O)c2cccc(Cl)c2)c2c(Oc3ccc4ccccc4c3)cccc21` [Compound P353], the IC50 is less than 1 µM.

As for `O=C(C=Cc1cccc2c1N(Cc1ccc3ccccc3c1)C(=O)C2=O)NS(=O)(=O)c1cccs1` [Compound P096], the IC50 was less than 1 µM.

Consider `O=C(COc1cccc2c1N(Cc1ccccc1)C(=O)CO2)NS(=O)(=O)c1cccs1` [Compound P022], for which the 50% inhibitory concentration (IC50) lay within 1 to 10 µM.

On to `Cn1cc(Oc2ccc3ccccc3c2)c2c(C=CC(=O)NS(=O)(=O)c3cc(Cl)c(Cl)s3)cccc21` [Compound P277], for which the IC50 is less than 1 µM.

For the compound `Cc1cn(Cc2ccc3ccccc3c2)c2c(/C=C/C(=O)N(C)S(=O)(=O)c3cc(Cl)c(Cl)s3)cc(F)cc12` [Compound P076], the IC50 is less than 1 µM.

For the compound `O=C(C=Cc1cccc2c1N(Cc1ccc3ccccc3c1)C(=O)C2=O)NS(=O)(=O)c1cc(Cl)c(Cl)s1` [Compound P115], the IC50 is less than 1 µM.

Take `CC12CCCC(C=CC(=O)NS(=O)(=O)c3cc(Cl)c(Cl)s3)=C1N(Cc1cccc(Cl)c1)C(=O)C2` (stereo not drawn) [Compound P285]: the IC50 was less than 1 µM.

Regarding `Cc1noc(C)c1Cn1cc(C)c2cc(F)cc(C=CC(=O)NS(=O)(=O)c3cc(F)c(F)cc3F)c21` [Compound P370], the IC50 is less than 1 µM.

As to `COCc1cn(Cc2ccc(Cl)cc2Cl)c2c(C=CC(=O)NS(=O)(=O)c3cccs3)cccc12` [Compound P070], the IC50 is less than 1 µM.

As for `Cc1ccc(Sc2c[nH]c3cccc(OCC(=O)NS(=O)(=O)c4cc(Cl)c(Cl)s4)c23)c(C)c1` [Compound P165], the IC50 was less than 1 µM.

Regarding `O=C(COc1cccc2[nH]cc(Sc3nc4ccccc4s3)c12)NS(=O)(=O)c1cc(Cl)c(Cl)s1` [Compound P182], the IC50 was less than 1 µM.

As to `Cn1cc(C=CC(=O)NS(=O)(=O)c2cc(Cl)c(Cl)s2)c2c(Oc3ccc(F)cc3Cl)cccc21` [Compound P342], the IC50 is less than 1 µM.

On to `O=C(COc1cccc2[nH]cc(Sc3nc4ccccc4o3)c12)NS(=O)(=O)c1cc(Cl)c(Cl)s1` [Compound P181], for which the IC50 is less than 1 µM.

With `Cc1cn(Cc2ccc(OC(F)F)cc2)c2c(/C=C/C(=O)NS(=O)(=O)c3cc(Cl)c(Cl)s3)cccc12` [Compound P145], the IC50 is less than 1 µM.
